Measured values: US8134015B2, “Compound inhibiting in vivo phosphorous transport and medicine containing the same” (Kyowa Hakko Kirin Co., Ltd., priority 2003, dated 2012)

Experiments:
[1] = target: T1, human NaPi-2a (Homo sapiens, UniProt Q06495); experiment: Sodium-dependent phosphate uptake of Xenopus oocytes which expressed NaPi-2a (32P); format: cell-based; conditions: phosphate uptake, Xenopus oocytes expressing human NaPi-2a; five concentration levels
T1 construct: expressed in transfected cells
T1 sequence (Q06495 1-639): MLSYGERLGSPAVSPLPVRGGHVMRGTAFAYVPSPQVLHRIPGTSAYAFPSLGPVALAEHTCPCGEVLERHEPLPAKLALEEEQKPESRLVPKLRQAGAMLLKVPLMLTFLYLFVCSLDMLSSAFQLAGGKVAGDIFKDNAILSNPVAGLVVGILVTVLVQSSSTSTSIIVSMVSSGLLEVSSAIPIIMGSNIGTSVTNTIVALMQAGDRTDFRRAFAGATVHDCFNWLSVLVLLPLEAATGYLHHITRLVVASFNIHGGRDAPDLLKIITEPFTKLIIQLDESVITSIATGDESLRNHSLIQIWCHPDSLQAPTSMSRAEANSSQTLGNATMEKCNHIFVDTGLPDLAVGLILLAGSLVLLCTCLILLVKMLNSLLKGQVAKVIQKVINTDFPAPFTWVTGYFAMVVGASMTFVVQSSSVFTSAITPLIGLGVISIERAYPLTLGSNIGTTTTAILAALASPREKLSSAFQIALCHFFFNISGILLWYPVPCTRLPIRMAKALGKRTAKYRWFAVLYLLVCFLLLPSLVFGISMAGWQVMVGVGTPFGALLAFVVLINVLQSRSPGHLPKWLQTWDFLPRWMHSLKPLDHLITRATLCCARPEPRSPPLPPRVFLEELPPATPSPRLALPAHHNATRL
From the text: Experiment of Sodium-Dependent Phosphate Uptake of Xenopus oocytes which Expressed NaPi-2a
In the test, a group with the addition of choline chloride (Choline Cl) was used as a negative control for nonspecific uptake, and PFA (phosphonoformic acid) was used as a positive control for phosphate transport inhibition.

[2] = target: T2, rat NaPi-2b (Rattus norvegicus, UniProt Q9JJ09); experiment: Sodium-dependent phosphate uptake of Xenopus oocytes which expressed NaPi-2b (32P); format: cell-based; conditions: Xenopus oocytes expressing rat NaPi-2b, 32P radioactive phosphorus; read-out: IC50 (phosphate uptake inhibitory activity)
T2 construct: expressed in transfected cells; host or cells: Xenopus oocytes injected with cRNA
T2 sequence (Q9JJ09 1-695): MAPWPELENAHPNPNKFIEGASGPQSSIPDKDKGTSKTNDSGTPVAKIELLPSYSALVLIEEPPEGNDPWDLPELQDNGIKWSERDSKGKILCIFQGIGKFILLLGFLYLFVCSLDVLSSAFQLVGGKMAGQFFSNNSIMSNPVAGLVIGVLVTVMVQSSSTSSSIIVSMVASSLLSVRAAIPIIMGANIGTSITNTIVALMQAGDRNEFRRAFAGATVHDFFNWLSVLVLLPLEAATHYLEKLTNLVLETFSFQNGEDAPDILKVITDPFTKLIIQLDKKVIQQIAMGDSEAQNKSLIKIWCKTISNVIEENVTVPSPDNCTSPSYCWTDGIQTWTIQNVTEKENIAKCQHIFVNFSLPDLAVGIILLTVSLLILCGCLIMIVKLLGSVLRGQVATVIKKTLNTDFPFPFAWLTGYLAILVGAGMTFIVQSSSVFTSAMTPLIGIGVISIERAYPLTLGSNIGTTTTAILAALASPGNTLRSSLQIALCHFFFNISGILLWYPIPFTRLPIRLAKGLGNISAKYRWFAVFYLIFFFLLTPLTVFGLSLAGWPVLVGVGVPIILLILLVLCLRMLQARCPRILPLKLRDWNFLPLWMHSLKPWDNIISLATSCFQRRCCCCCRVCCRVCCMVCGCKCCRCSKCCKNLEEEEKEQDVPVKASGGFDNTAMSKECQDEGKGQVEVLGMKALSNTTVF
Procedure, shortened: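 Oocytes injected with rat NaPi-2b cRNA, cultured 2 d, then 32P uptake measured with compound. Values: % inhibition at 300 and 100 μM, both from one inhibition curve.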

`Cc1csc(NC(=O)c2cccc(CN3CCC4(CC3)OCCO4)c2)c1C(=O)N/N=C/c1cccc(F)c1` [Compound 835, 3-(1,4-Dioxa-8-aza-spiro[4,5]dec-8-ylmethyl]-N-[3-(3-fluoro-benzylidene-hydrazinocarbonyl)-4-methyl-thiophen-2-yl]-benzamide] gave an IC50 [1] of 11000 nM and an IC50 [2] of 6460 nM.
Molecule `Cc1csc(NC(=O)c2cccc(CN3CCC4(CC3)OCCO4)c2)c1C(=O)N/N=C/c1ccc(Cl)c(C(F)(F)F)c1` [Compound 836, N-[3-(4-Chloro-3-trifluoromethyl-benzylidene-hydrazinocarbonyl)-4-methyl-thiophen-2-yl]-3-(1,4-dioxa-8-aza-spiro[4,5]dec-8-ylmethyl]-benzamide] has an IC50 [1] of 10200 nM and an IC50 [2] of 770 nM.
With `CCN(CC)CCN(CCN(CC)CC)Cc1cccc(C(=O)Nc2scc(C)c2C(=O)N/N=C/c2ccc(C)c(C)c2)c1` [Compound 838, 3-{[Bis-(2-diethylamino-ethyl)-amino]-methyl}-N-[3-(3,4-dimethyl-benzylidene-hydrazinocarbonyl)-4-methyl-thiophen-2-yl]-benzamide] the IC50 [1] was 10200 nM and the IC50 [2] was < 3000 nM.
Work on `CCN(CC)CCN(CCN(CC)CC)Cc1cccc(C(=O)Nc2scc(C)c2C(=O)N/N=C/c2ccc(C)cc2)c1` [Compound 839, 3-{[Bis-(2-diethylamino-ethyl)-amino]-methyl}-N-[4-methyl-3-(4-methyl-benzylidene-hydrazinocarbonyl)-thiophen-2-yl]-benzamide] yielded an IC50 [1] of 23200 nM and an IC50 [2] of 5040 nM.
`CCN(CC)CCN(CCN(CC)CC)Cc1cccc(C(=O)Nc2scc(C)c2C(=O)N/N=C/c2ccc(F)cc2)c1` [Compound 840, 3-{[Bis-(2-diethylamino-ethyl)-amino]-methyl}-N-[3-(4-fluoro-benzylidene-hydrazinocarbonyl)-4-methyl-thiophen-2-yl]-benzamide] was tested, and the IC50 [1] was 34100 nM and the IC50 [2] was 6950 nM.
In the case of `CCN(CC)CCN(CCN(CC)CC)Cc1cccc(C(=O)Nc2scc(C)c2C(=O)N/N=C/c2cccc(F)c2)c1` [Compound 841, 3-{[Bis-(2-diethylamino-ethyl)-amino]-methyl}-N-[3-(3-fluoro-benzylidene-hydrazinocarbonyl)-4-methyl-thiophen-2-yl]-benzamide], the IC50 [1] is reported as 19900 nM and the IC50 [2] is reported as < 3000 nM.
In the case of `Cc1ccc(/C=N/NC(=O)c2c(NC(=O)c3cccc(CN(CC(C)O)CC(C)O)c3)sc(C)c2C)cc1` (stereo not shown) [Compound 845, 3-{[Bis-(2-hydroxy-propyl)-amino]-methyl}-N-[4,5-dimethyl-3-(4-methyl-benzylidene-hydrazinocarbonyl)-thiophen-2-yl]-benzamide], the IC50 [1] is reported as < 3000 nM and the IC50 [2] is reported as < 3000 nM.
`Cc1sc(NC(=O)c2cccc(CN(CC(C)O)CC(C)O)c2)c(C(=O)N/N=C/c2ccc(F)cc2)c1C` (stereo not shown) [Compound 846, 3-{[Bis-(2-hydroxy-propyl)-amino]-methyl}-N-[3-(4-fluoro-benzylidene-hydrazinocarbonyl)-4,5-dimethyl-thiophen-2-yl]-benzamide] was tested, and the IC50 [1] was < 3000 nM and the IC50 [2] was < 3000 nM.
`CCN(CC)CCN(C)Cc1cccc(C(=O)Nc2ccc(N3CCCCC3)cc2C(=O)N/N=C/c2ccc(C)c(C)c2)c1` [Compound 858, 3-{[(2-Diethylamino-ethyl)-methyl-amino]-methyl}-N-[2-(3,4-dimethyl-benzylidene-hydrazinocarbonyl)-4-piperidin-1-ylphenyl]-benzamide] was tested, and the IC50 [1] was < 1000 nM and the IC50 [2] was 460 nM.
With `CCN(CC)CCN(C)Cc1cccc(C(=O)Nc2ccc(N3CCCCC3)cc2C(=O)N/N=C/c2ccc(C)cc2)c1` [Compound 859, 3-{[(2-Diethylamino-ethyl)-methyl-amino]-methyl}-N-[2-(4-methyl-benzylidene-hydrazinocarbonyl)-4-piperidin-1-yl-phenyl]-benzamide] the IC50 [1] was 1600 nM and the IC50 [2] was 390 nM.
With `CCN(CC)CCN(C)Cc1cccc(C(=O)Nc2ccc(N3CCCCC3)cc2C(=O)N/N=C/c2ccc(F)cc2)c1` [Compound 860, 3-{[(2-Diethylamino-ethyl)-methyl-amino]-methyl}-N-[2-(4-fluoro-benzylidene-hydrazinocarbonyl)-4-piperidin-1-yl-phenyl]-benzamide] the IC50 [1] was < 1000 nM and the IC50 [2] was 650 nM.
`CCN(CC)CCN(C)Cc1cccc(C(=O)Nc2ccc(N3CCCCC3)cc2C(=O)N/N=C/c2cccc(F)c2)c1` [Compound 861, 3-{[(2-Diethylamino-ethyl)-methyl-amino]-methyl}-N-[2-(3-fluoro-benzylidene-hydrazinocarbonyl)-4-piperidin-1-yl-phenyl]-benzamide] was tested, and the IC50 [1] was < 1000 nM and the IC50 [2] was 520 nM.
With `CCN(CC)CCN(C)Cc1cccc(C(=O)Nc2ccc(N3CCCCC3)cc2C(=O)N/N=C/c2ccc(Cl)c(C(F)(F)F)c2)c1` [Compound 862, N-[2-(4-Chloro-3-trifluoromethyl-benzylidene-hydrazinocarbonyl)-4-piperidin-1-yl-phenyl]-3-{[(2-diethylamino-ethyl)-methyl-amino]-methyl}-benzamide] the IC50 [1] was 1650 nM and the IC50 [2] was 350 nM.
Work on `CCN(CC)CCN(C)Cc1cccc(C(=O)Nc2ccc(N3CCCCC3)cc2C(=O)N/N=C/c2ccc(OC)cc2)c1` [Compound 863, 3-{[(2-Diethylamino-ethyl)-methyl-amino]-methyl}-N-[2-(4-methoxy-benzylidene-hydrazinocarbonyl)-4-piperidin-1-yl-phenyl]-benzamide] yielded an IC50 [1] of 6900 nM and an IC50 [2] of 1220 nM.
With `Cc1ccc(/C=N/NC(=O)c2cc(N3CCCCC3)ccc2NC(=O)c2cccc(CN3CCN(CCO)CC3)c2)cc1C` [Compound 864, N-[2-(3,4-Dimethyl-benzylidene-hydrazinocarbonyl)-4-piperidin-1-yl-phenyl]-3-[4-(2-hydroxy-ethyl)-piperazin-1-ylmethyl]-benzamide] the IC50 [1] was 1940 nM and the IC50 [2] was 740 nM.
`Cc1ccc(/C=N/NC(=O)c2cc(N3CCCCC3)ccc2NC(=O)c2cccc(CN3CCN(CCO)CC3)c2)cc1` [Compound 865, 3-[4-(2-Hydroxy-ethyl)-piperazin-1-ylmethyl]-N-[2-(4-methyl-benzylidene-hydrazinocarbonyl)-4-piperidin-1-yl-phenyl]-benzamide] showed an IC50 [1] of 4340 nM and an IC50 [2] of 1490 nM.
`CCN(CC)CCSCc1cccc(C(=O)Nc2ccc(N3CCCCC3)cc2C(=O)N/N=C/c2ccc(Cl)c(C(F)(F)F)c2)c1` [Compound 878, N-[2-(4-Chloro-3-trifluoromethyl-benzylidene-hydrazinocarbonyl)-4-piperidin-1-yl-phenyl]-3-(2-diethylamino-ethylsulfanylmethyl)-benzamide] was tested, and the IC50 [1] was 7220 nM and the IC50 [2] was < 300 nM.
Work on `Cc1ccc(/C=N/NC(=O)c2cc(N3CCCCC3)ccc2NC(=O)c2cccc(CSCCO)c2)cc1C` [Compound 880, N-[2-(3,4-Dimethyl-benzylidene-hydrazinocarbonyl)-4-piperidin-1-yl-phenyl]-3-(2-hydroxy-ethylsulfanylmethyl)-benzamide] yielded an IC50 [1] of 1300 nM and an IC50 [2] of 80 nM.
In the case of `Cc1ccc(/C=N/NC(=O)c2cc(N3CCCCC3)ccc2NC(=O)c2cccc(CSCCO)c2)cc1` [Compound 881, 3-(2-Hydroxy-ethylsulfanylmethyl)-N-[2-(4-methyl-benzylidene-hydrazinocarbonyl)-4-piperidin-1-yl-phenyl]-benzamide], the IC50 [1] is reported as 2670 nM and the IC50 [2] is reported as 180 nM.
Work on `O=C(Nc1ccc(N2CCCCC2)cc1C(=O)N/N=C/c1ccc(F)cc1)c1cccc(CSCCO)c1` [Compound 882, N-[2-(4-Fluoro-benzylidene-hydrazinocarbonyl)-4-piperidin-1-yl-phenyl]-3-(2-hydroxy-ethylsulfanylmethyl)-benzamide] yielded an IC50 [1] of 4450 nM and an IC50 [2] of 330 nM.
